Read-outs that look alike come from different tables or passages of the source.
Assays:
[1] = molecular target: T1, SARS-CoV-2 PLpro (Severe acute respiratory syndrome coronavirus 2, UniProt P0DTC1); test: biochemical; settings: for inhibition at 50 µM: compound at 50 µM, 10 nM PLpro, ISG15-Rhodamine 100 nM, preincubation 6 h at 10 °C, read-out: % Inhibition of PLpro deISGylation activity
[2] = molecular target: T1, SARS-CoV-2 PLpro; format: biochemical; settings: compound at 50 µM, compared with ISG15-Rhodamine substrate
[3] = tested on: SARS-CoV-2; test: Antiviral activity assay in Vero cells, viral RNA by qRT-PCR; format: cell-based; settings: Severe acute respiratory syndrome coronavirus 2, MOI 0.01, qRT-PCR, 42 h post-infection, read-out: IC50 Antiviral cell assay (reduction of viral RNA replication)
[4] = tested on: SARS-CoV-2; test: microbe, parasite or virus in culture; format: cell-based; settings: Vero cells, MOI 0.01, 42 h, CellTiter-Glo; for IC50: read-out: IC50 CPE inhibition
[5] = tested on: Vero cell lines (ATCC CCL-81)
[6] = molecular target: PLpro (Severe acute respiratory syndrome coronavirus 2, UniProt P0DTC1); test: nanoDSF fluorescence titration (quenching of PLpro fluorescence); format: binding, SARS-CoV-2
[7] = molecular target: SARS-CoV-2 main protease (Mpro) (Severe acute respiratory syndrome coronavirus 2, UniProt P0DTC1); test: FRET-based Mpro inhibition assay; format: biochemical; settings: substrate 2-AbzSAVLQSGTyr(3-NO2)R-OH, incubated with Mpro for 30 minutes
Method: Activity assays were performed for SARS-CoV-2 Mpro[16],[71] utilizing the three natural compounds, aiming to characterize the specificity of the compounds towards PLpro. The assays were performed applying a total reaction volume of 50 µL using non-binding, black bottom, 96-well plates and the relative fluorescence was measured utilizing a Tecan Infinite M plus plate reader (Tecan Group Ltd, Switzerland) using optical settings specific for the substrate 2-Abz[…]yr(3-NO2)R-OH (Biotrend). The corresponding fluorophore has an excitation and emission at 355 nm and 460 nm wavelength respectively. The substrate and Mpro were used at a final concentration of 5 µM and 75 nM respectively. The known Mpro inhibitor (GC-376) was used as positive control throughout the assay. SARS-CoV-2 Mpro and substrates were diluted in assay buffer (20 mM Tris-HCl pH 7.3, 150 mM NaCl, 1 mM EDTA, 1 mM DTT) and reactions were initiated upon addition of Mpro in a final volume of 50 µL and were measured at 25 °C. The three compounds were incubated prior to the experiments with Mpro at 10 °C for 6 h, as accomplished also for the PLpro activity assays. Fluorescence values were measured for 15 min with one read out per minute. […]
311 with Mpro for 6h at 10 °C and fluorescence was measured for 15 min with read - […]
318 were incubated with the Mpro for 30 minutes. The IC50 values were calculated by […]

OCCc1ccc(O)cc1 [YRL, 4-(2-hydroxyethyl)phenol]
IC50 [1]: 6.68 ± 1.2 µM
inhibition at 50 µM [1]: ~70%
inhibition of PLpro with Ub-Rhodamine as substrate [2]: not as pronounced
IC50 [3]: 1 µM
IC50 CPE inhibition [4]: unable to fit a sigmoidal curve
cell toxicity at 100 µM [5]: no associated cell toxicity

O=Cc1ccc(O)cc1 [HBA, 4-hydroxybenzaldehyde]
Kd [6]: ~400 µM
IC50 [1]: 3.99 ± 1.33 µM
inhibition at 50 µM [1]: ~73%
inhibition of PLpro with Ub-Rhodamine as substrate [2]: not as pronounced
IC50 CPE inhibition [4]: unable to fit a sigmoidal curve

COC(=O)c1ccc(O)c(O)c1 [HE9, methyl 3,4-dihydroxybenzoate]
Kd ([6]; nanoDSF fluorescence titration, 50 μM PLpro, 0.5% DMSO, depending on the emission wavelength used (330/350 nm), read-out: Kd): 1000 µM
IC50 [3]: 0.13 µM
IC50 ([4]; Severe acute respiratory syndrome coronavirus 2, Vero, 42 h): 10.4 µM
IC50 [4]: 10 µM
cell toxicity at 100 µM [5]: no associated cell toxicity

CC(C)C[C@H](NC(=O)OCc1ccccc1)C(=O)N[C@@H](CC1CCNC1=O)C(O)S(=O)(=O)O (some centres unmarked) [GC-376]
IC50 [7]: 1.1 µM

Reference: PMC9366811, “Antiviral activity of natural phenolic compounds in complex at an allosteric site of SARS-CoV-2 papain-like protease” (Communications Biology, 2022)
